Reference: US8937056B2, “Multikinase inhibitors for use in the treatment of cancer” (Eisai R&D Management Co., Ltd., priority 2007, dated 2015)

Key:
Abl kinase = Abl kinase (Homo sapiens, UniProt P00519); assay: Kinase inhibition, full range of concentrations; format: biochemical; conditions: 10 μM ATP, duplicate measurements
Procedure: (§1) In a final reaction volume of 25 μL, each human enzyme was incubated with appropriate buffer. The reaction was initiated by the addition of the MgATP mix with [γ^33P-ATP]. After incubation for 40 minutes at room temperature, the reaction was stopped by the addition of 5 μL of a phosphoric acid solution. All assays were performed at an ATP concentration of 10 μM.
(§2) 10 μL of the reaction was spotted onto a P30 filtermat and washed three times for 5 minutes in a phosphoric acid solution. ^33P transferred to a substrate peptide was then determined by scintillation counting. The results were expressed as a percentage of that in control incubations.
(§3) Furthermore, inhibitory activities of the compounds were confirmed against six of these kinases with a full range of concentrations. Three cytoplasmic Src family kinases were studied: c-Src, Fyn and Lyn. We also studied cytoplasmic Abl kinase and two receptor tyrosine kinases: Flt3, and TrkB. A standard ATP concentration of 10 μM was used in all reactions. All experiments were conducted with duplicate measurements. […] TrkB and members of the Src family were the most sensitive enzymes to Compound 091 inhibition.

Flt3 = biological target: T1, Flt3 (Homo sapiens, UniProt P36888); assay: Kinase inhibition, full range of concentrations; format: biochemical; conditions: 10 μM ATP, duplicate measurements
T1 sequence (P36888 27-993): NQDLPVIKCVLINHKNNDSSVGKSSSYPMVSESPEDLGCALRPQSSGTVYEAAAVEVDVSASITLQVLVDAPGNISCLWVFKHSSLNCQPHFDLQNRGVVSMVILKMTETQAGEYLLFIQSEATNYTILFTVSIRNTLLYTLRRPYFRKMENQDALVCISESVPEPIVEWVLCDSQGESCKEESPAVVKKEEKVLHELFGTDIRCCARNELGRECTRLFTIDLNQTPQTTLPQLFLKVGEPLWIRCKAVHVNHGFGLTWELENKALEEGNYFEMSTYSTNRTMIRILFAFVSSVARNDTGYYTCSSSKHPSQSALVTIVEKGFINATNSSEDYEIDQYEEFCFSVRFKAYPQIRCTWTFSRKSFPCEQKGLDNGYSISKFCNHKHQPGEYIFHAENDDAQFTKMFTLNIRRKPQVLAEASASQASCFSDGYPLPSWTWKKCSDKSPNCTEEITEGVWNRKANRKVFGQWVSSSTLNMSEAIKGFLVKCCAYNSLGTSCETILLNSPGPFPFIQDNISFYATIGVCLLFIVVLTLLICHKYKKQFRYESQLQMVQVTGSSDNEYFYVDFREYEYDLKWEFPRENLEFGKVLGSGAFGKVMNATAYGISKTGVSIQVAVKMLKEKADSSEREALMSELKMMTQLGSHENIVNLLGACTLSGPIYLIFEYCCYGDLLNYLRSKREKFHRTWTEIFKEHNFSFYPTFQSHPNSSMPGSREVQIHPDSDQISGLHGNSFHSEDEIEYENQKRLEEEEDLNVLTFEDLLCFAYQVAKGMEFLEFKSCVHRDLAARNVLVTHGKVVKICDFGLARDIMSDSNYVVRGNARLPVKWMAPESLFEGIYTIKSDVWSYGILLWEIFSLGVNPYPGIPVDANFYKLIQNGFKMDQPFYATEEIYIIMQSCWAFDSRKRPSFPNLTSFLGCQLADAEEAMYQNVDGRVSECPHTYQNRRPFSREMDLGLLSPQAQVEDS
Procedure: as §1, §2, §3

Fyn = Fyn (Homo sapiens, UniProt P06241); assay: Kinase inhibition, full range of concentrations; format: biochemical; conditions: 10 μM ATP, duplicate measurements
Procedure: as §1, §2, §3

Lyn = Lyn (Homo sapiens, UniProt P07948); assay: Kinase inhibition, full range of concentrations; format: biochemical; conditions: 10 μM ATP, duplicate measurements
Procedure: as §1, §2, §3

TrkB = TrkB (Homo sapiens, UniProt Q16620); assay: Kinase inhibition, full range of concentrations; format: biochemical; conditions: 10 μM ATP, duplicate measurements
Procedure: as §1, §2, §3

c-Src = c-Src (Homo sapiens, UniProt P12931); assay: Kinase inhibition, full range of concentrations; format: biochemical; conditions: 10 μM ATP, duplicate measurements
Procedure: as §1, §2, §3

[1] = test system: LOX human melanoma xenografts; assay: In vivo antitumor activity in LOX xenografts; design: species or system mice
Procedure: A study was carried out to investigate anticancer activity of compounds 091 and 106 in human LOX BRAF mutated melanoma xenografts. The compounds were evaluated against subcutaneous-implanted LOX human melanoma xenografts in female athymic mice.
The human melanoma cell line, LOX which has B-RAF (V600E) mutation was transplanted subcutaneously into female nude mice. The experiment consisted of 8 mice per group on the first day of treatment. Compounds were independently administered intravenously for two weekly rounds of five daily injections (q1d×5) with a two-day rest period between the rounds. Compounds were administered in a vehicle volume of 0.1 mL/10 g of body weight.
The general health of the mice was monitored daily. Tumor dimensions and body weights were recorded twice a week starting on the first day of treatment. Tumor weights were calculated using the equation (l×w^2)/2, where 1 and w refer to the larger and smaller dimensions collected at each measurement. When the mean tumor volume reached 128 mm^3, vehicle (cremophor:ethanol:5% glucose; 1:1:8) or one of the test compounds (10, 20, 30, or 40 mg/kg) was administered to mice (8/group).

[2] = test system: human hematologic cancer cell lines; assay: Antiproliferative effects in hematologic cancer cell lines (MTT assay); format: cell-based; conditions: two cell lines derived from B-cell non-Hodgkin's lymphoma, 96 h
Procedure: A study was carried out to investigate anticancer activity of compounds 091 and 106 in a panel of human hematologic cancer cell lines in vitro. Antiproliferative effects of compounds 091 and 106 were evaluated in 7 human cancer cell lines representing several different cancer types of hematologic malignancy. […] Cell growth was assessed using the MTT assay.

[3] = test system: PANC-1 pancreatic cancer cells; assay: PANC-1 cell growth, alone or in combination with SN-38 (CellTiter-Glo)
Procedure: To determine whether compounds 091 or 106 in combination with SN-38 would enhance the anticancer activity of chemotherapy due to MEKK1 inhibition, PANC-1 human pancreatic cancer cells were examined.
Antiproliferative effects of SN-38 were evaluated in PANC-1 pancreatic cancer cells in combination with compound 091 or 106. Cultured human cancer cells were placed into 96-well plates and grown in the absence or continuous presence of 0.03-1000 nM SN-38 for 96 h with or without 1 μM of test compound. Cell growth was assessed using CellTiter-Glo® Luminescent Cell Viability Assay (Promega). IC50 values were determined as the concentration of a substance which inhibits cell growth by 50% compared to untreated cell populations.

Chain of c-Src (P12931 whole entry): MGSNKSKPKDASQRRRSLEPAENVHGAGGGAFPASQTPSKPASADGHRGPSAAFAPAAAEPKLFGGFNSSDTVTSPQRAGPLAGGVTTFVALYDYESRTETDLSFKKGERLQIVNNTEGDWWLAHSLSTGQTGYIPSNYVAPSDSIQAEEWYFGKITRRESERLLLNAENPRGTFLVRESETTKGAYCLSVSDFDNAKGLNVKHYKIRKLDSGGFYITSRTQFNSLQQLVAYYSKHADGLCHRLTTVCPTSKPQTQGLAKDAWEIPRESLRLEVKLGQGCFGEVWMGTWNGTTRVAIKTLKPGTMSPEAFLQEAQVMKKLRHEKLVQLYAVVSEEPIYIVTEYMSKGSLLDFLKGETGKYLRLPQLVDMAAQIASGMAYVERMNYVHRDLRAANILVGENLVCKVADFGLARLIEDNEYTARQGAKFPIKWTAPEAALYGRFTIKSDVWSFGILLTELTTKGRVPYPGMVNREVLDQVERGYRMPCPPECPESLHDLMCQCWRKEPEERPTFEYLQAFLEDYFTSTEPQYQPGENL
Chain of Abl kinase (P00519 whole entry): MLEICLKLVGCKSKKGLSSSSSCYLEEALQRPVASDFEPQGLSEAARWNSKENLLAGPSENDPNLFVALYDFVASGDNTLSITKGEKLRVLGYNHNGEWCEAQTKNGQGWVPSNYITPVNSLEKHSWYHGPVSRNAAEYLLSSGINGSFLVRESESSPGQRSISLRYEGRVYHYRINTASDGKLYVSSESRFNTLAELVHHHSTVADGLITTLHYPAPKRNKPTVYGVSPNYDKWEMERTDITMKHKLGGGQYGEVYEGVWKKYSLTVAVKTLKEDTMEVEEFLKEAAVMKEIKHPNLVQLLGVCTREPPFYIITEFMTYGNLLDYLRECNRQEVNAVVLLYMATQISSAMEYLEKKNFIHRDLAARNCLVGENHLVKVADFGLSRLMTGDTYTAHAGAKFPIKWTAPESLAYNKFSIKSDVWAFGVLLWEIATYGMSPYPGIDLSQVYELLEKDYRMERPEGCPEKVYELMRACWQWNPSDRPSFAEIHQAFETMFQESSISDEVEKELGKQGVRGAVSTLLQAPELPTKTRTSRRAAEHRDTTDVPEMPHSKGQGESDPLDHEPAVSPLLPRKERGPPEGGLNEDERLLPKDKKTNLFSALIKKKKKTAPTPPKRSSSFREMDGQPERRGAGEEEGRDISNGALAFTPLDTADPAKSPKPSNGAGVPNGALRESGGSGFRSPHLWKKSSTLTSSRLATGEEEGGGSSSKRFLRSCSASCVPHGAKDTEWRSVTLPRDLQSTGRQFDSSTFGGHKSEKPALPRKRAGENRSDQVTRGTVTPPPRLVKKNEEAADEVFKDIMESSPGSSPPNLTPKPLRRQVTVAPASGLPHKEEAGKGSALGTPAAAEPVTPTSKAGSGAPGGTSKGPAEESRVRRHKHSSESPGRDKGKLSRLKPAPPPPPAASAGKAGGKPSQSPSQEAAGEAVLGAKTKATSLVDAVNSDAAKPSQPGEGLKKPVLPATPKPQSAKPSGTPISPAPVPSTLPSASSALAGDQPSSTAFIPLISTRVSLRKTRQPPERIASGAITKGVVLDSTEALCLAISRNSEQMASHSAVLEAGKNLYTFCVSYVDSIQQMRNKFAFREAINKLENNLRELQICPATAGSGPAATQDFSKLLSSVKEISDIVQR
Chain of TrkB (Q16620 32-822): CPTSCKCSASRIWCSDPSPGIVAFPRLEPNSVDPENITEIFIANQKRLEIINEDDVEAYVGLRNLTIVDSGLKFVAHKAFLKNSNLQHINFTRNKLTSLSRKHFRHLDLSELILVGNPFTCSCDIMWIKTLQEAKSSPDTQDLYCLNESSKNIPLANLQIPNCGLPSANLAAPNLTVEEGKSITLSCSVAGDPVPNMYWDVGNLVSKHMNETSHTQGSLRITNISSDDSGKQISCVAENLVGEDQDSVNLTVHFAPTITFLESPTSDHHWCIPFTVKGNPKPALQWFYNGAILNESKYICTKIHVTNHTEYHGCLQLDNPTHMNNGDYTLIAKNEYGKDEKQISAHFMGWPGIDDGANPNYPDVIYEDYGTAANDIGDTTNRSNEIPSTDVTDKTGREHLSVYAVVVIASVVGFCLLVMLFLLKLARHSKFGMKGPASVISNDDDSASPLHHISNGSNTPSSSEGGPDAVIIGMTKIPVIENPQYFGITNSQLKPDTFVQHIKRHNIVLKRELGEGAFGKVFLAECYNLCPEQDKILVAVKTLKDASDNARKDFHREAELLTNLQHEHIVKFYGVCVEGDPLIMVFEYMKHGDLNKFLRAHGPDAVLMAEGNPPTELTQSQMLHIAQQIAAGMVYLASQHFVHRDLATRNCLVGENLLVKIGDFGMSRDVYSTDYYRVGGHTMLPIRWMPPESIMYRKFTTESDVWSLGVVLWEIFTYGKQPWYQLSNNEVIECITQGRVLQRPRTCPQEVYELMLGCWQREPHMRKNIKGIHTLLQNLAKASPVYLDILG
Chain of Lyn (P07948 whole entry): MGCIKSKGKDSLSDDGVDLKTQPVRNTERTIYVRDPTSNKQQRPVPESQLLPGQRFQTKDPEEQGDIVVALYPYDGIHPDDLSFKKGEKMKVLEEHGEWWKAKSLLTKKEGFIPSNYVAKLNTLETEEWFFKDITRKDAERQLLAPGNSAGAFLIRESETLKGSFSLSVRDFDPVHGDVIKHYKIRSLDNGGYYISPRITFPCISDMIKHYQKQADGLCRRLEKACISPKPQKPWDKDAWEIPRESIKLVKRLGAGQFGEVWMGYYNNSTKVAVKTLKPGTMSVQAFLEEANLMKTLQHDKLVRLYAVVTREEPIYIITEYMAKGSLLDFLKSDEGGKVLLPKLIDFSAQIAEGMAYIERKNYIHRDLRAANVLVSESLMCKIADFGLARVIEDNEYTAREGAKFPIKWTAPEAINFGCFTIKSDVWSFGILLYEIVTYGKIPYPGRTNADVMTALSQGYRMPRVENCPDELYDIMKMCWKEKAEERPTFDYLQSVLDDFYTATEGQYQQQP
Chain of Fyn (P06241 whole entry): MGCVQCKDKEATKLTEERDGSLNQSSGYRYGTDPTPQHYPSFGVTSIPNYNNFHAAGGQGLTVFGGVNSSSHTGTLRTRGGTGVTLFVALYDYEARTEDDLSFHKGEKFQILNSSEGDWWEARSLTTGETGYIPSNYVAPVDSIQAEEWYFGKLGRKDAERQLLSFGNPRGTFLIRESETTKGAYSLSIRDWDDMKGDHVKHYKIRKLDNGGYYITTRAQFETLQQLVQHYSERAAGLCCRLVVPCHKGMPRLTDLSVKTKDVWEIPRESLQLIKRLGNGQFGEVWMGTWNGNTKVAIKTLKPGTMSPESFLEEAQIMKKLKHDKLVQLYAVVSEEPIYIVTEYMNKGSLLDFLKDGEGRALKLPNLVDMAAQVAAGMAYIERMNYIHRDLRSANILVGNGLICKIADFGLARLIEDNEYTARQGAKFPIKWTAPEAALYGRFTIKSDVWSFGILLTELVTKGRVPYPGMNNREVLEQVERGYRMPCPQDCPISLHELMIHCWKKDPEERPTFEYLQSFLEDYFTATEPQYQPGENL

CNc1cc(O)c2c(c1)/C=C/C[C@H](O)[C@H](O)C(=O)/C=C\[C@@H](C)[C@H](C)OC2=O [Compound 091] was tested, and the IC50 (Abl kinase) was < 214 nM, the IC50 (Flt3) was < 214 nM and the IC50 (Fyn) was < 214 nM. The IC50 (Lyn) was < 214 nM, the IC50 (TrkB) was < 214 nM and the IC50 (c-Src) was < 214 nM. It also gave a tumor regression ([1]; 10 mg/kg i.v., for the first three weeks) of 100%, a tumor regression ([1]; 20 mg/kg i.v., in all mice) of 100% and a tumor regression ([1]; 30 mg/kg i.v., in all mice) of 100%. The tumor regression ([1]; 40 mg/kg i.v., in all mice) was 100%, the “tumor status of mice at the end of the study” value ([1]; mice given 091) was “tumor free” and the “sensitivity of cell growth” value [2] was “sensitive”. The “effect on PANC-1 cancer cell growth, compound alone” value ([3]; 1 μM alone, separate experiments (data not shown)) was “did not affect” and the “effect on cytotoxicity of SN-38” value ([3]; 1 μM test compound in combination with SN-38) was “enhanced”.
